Measurements: US12552792B2, “Solid forms of an FGFR inhibitor and processes for preparing the same” (Incyte Corporation, priority 2018, dated 2026)
≈ marks a conversion by molar mass, not a printed value. Where two headings read alike, the source gives them in different places.

Assays:
Format in all cases: physicochemical
[1] = Solubility measurement of Form I in solvent systems (HPLC); conditions: organic solvent or mixture, thermodynamic from solid
Method: Form I waw found to be completely soluble (>50 mg/mL) in many solvents including DMF (50° C.), DCM, chloroform, DMSO, and DCM/MeOH (9/1) at 25° C. and 50° C.

[2] = as above; conditions: for solubility at 24 h: organic solvent or mixture, thermodynamic from solid, stirred 24 h, HPLC; for solubility (in words): 25° C.
[3] = Conversion of Form II to Form I in different solvents
Source text: The Form II was converted to Form I in acetonitrile, ethanol and IPA respectively as described in Table 13.

## CCN1C(=O)N(c2c(F)c(OC)cc(OC)c2F)Cc2cnc3[nH]c(CN4CCOCC4)cc3c21 [Form XI]
[1]; 25 °C, solvent Ethyl formate, stirred 24 h, HPLC, read-out: Solubility at 25° C.
  solubility at 24 h: 4160 µg/mL (≈ 8.53 mM)

## CCN1C(=O)N(c2c(F)c(OC)cc(OC)c2F)Cc2cnc3[nH]c(CN4CCOCC4)cc3c21 [Form X]
[2]; 25 °C, solvent EtOAc, read-out: Solubility at 25° C.
  solubility at 24 h: 700 µg/mL (≈ 1.44 mM)

## CCN1C(=O)N(c2c(F)c(OC)cc(OC)c2F)Cc2cnc3[nH]c(CN4CCOCC4)cc3c21 [Form III]
[2]; 25 °C, solvent 1,4-Dioxane, read-out: Solubility at 25° C.
  solubility at 24 h: 2230 µg/mL (≈ 4.57 mM)
[1]; 50 °C, solvent 1,4-Dioxane, stirred 24 h, HPLC, read-out: Solubility at 50° C.
  solubility at 24 h: 5690 µg/mL (≈ 11.7 mM)

## CCN1C(=O)N(c2c(F)c(OC)cc(OC)c2F)Cc2cnc3[nH]c(CN4CCOCC4)cc3c21 [Form VII]
[1]; 25 °C, solvent MIBK, stirred 24 h, HPLC, read-out: Solubility at 25° C.
  solubility at 24 h: 430 µg/mL (≈ 0.882 mM)

## CCN1C(=O)N(c2c(F)c(OC)cc(OC)c2F)Cc2cnc3[nH]c(CN4CCOCC4)cc3c21 [Form VI]
[2]; 25 °C, solvent Methanol, read-out: Solubility at 25° C.
  solubility at 24 h: 640 µg/mL (≈ 1.31 mM)

## CCN1C(=O)N(c2c(F)c(OC)cc(OC)c2F)Cc2cnc3[nH]c(CN4CCOCC4)cc3c21 [Form I]
[2]; 25 °C, solvent 2-Methoxyethanol, read-out: Solubility at 25° C.
  solubility at 24 h: 15300 µg/mL (≈ 31.3 mM)
[2]; 25 °C, solvent Chloroform, read-out: Solubility at 25° C.
  solubility at 24 h: > 50000 µg/mL
[2]; 25 °C, solvent DMF, read-out: Solubility at 25° C.
  solubility at 24 h: 42000 µg/mL (≈ 86.1 mM)
[2]; 25 °C, solvent DMSO, read-out: Solubility at 25° C.
  solubility at 24 h: > 50000 µg/mL
[2]; 25 °C, solvent EtOH, read-out: Solubility at 25° C.
  solubility at 24 h: 970 µg/mL (≈ 1.99 mM)
[2]; 25 °C, solvent IPA/water (4/1), read-out: Solubility at 25° C.
  solubility at 24 h: 5350 µg/mL (≈ 11 mM)
[2]; 25 °C, solvent IPA, read-out: Solubility at 25° C.
  solubility at 24 h: 560 µg/mL (≈ 1.15 mM)
[2]; 25 °C, solvent Isobutyl acetate, read-out: Solubility at 25° C.
  solubility at 24 h: 460 µg/mL (≈ 0.944 mM)
[2]; 25 °C, solvent MEK, read-out: Solubility at 25° C.
  solubility at 24 h: 1200 µg/mL (≈ 2.46 mM)
[2]; 25 °C, solvent MeCN, read-out: Solubility at 25° C.
  solubility at 24 h: 5390 µg/mL (≈ 11.1 mM)
[2]; 25 °C, solvent THF, read-out: Solubility at 25° C.
  solubility at 24 h: 4110 µg/mL (≈ 8.43 mM)
[2]; 25 °C, solvent n-BuOH, read-out: Solubility at 25° C.
  solubility at 24 h: 820 µg/mL (≈ 1.68 mM)
[2]; 50 °C, solvent 2-Methoxyethanol, read-out: Solubility at 50° C.
  solubility at 24 h: 20500 µg/mL (≈ 42 mM)
[2]; 50 °C, solvent Acetone, read-out: Solubility at 50° C.
  solubility at 24 h: 6670 µg/mL (≈ 13.7 mM)
[2]; 50 °C, solvent DCM/MeOH (9/1), read-out: Solubility at 50° C.
  solubility at 24 h: > 50000 µg/mL
[2]; 50 °C, solvent DMF, read-out: Solubility at 50° C.
  solubility at 24 h: > 50000 µg/mL
[2]; 50 °C, solvent DMSO, read-out: Solubility at 50° C.
  solubility at 24 h: > 50000 µg/mL
[2]; 50 °C, solvent EtOH, read-out: Solubility at 50° C.
  solubility at 24 h: 2730 µg/mL (≈ 5.6 mM)
[2]; 50 °C, solvent Ethyl formate, read-out: Solubility at 50° C.
  solubility at 24 h: 15300 µg/mL (≈ 31.4 mM)
[2]; 50 °C, solvent IPA/water (4/1), read-out: Solubility at 50° C.
  solubility at 24 h: 8770 µg/mL (≈ 18 mM)
[2]; 50 °C, solvent IPA, read-out: Solubility at 50° C.
  solubility at 24 h: 1370 µg/mL (≈ 2.81 mM)
[2]; 50 °C, solvent IPAc, read-out: Solubility at 50° C.
  solubility at 24 h: 1330 µg/mL (≈ 2.73 mM)
[2]; 50 °C, solvent Isobutyl acetate, read-out: Solubility at 50° C.
  solubility at 24 h: 580 µg/mL (≈ 1.19 mM)
[2]; 50 °C, solvent MEK, read-out: Solubility at 50° C.
  solubility at 24 h: 3220 µg/mL (≈ 6.61 mM)
[2]; 50 °C, solvent MIBK, read-out: Solubility at 50° C.
  solubility at 24 h: 1120 µg/mL (≈ 2.3 mM)
[2]; 50 °C, solvent MTBE, read-out: Solubility at 50° C.
  solubility at 24 h: 190 µg/mL (≈ 0.39 mM)
[2]; 50 °C, solvent Toluene, read-out: Solubility at 50° C.
  solubility at 24 h: 820 µg/mL (≈ 1.68 mM)
[2]; 50 °C, solvent n-BuOH, read-out: Solubility at 50° C.
  solubility at 24 h: 1650 µg/mL (≈ 3.38 mM)
[2]; MTBE, toluene, IPAc, methanol, and IPA
  solubility (in words): sparingly soluble
[2]; water, heptane and hexane
  solubility (in words): almost insoluble
[1]; 25 °C, solvent 1-Propanol, stirred 24 h, HPLC, read-out: Solubility at 25° C.
  solubility at 24 h: 1160 µg/mL (≈ 2.38 mM)
[1]; 25 °C, solvent DCM/MeOH (9/1), stirred 24 h, HPLC, read-out: Solubility at 25° C.
  solubility at 24 h: > 50000 µg/mL
[1]; 25 °C, solvent IPAc, stirred 24 h, HPLC, read-out: Solubility at 25° C.
  solubility at 24 h: 880 µg/mL (≈ 1.81 mM)
[1]; 25 °C, solvent Toluene, stirred 24 h, HPLC, read-out: Solubility at 25° C.
  solubility at 24 h: 450 µg/mL (≈ 0.923 mM)
[1]; 50 °C, solvent 1-Propanol, stirred 24 h, HPLC, read-out: Solubility at 50° C.
  solubility at 24 h: 2500 µg/mL (≈ 5.13 mM)
[1]; 50 °C, solvent Chloroform, stirred 24 h, HPLC, read-out: Solubility at 50° C.
  solubility at 24 h: > 50000 µg/mL
[1]; 50 °C, solvent Dichloromethane, stirred 24 h, HPLC, read-out: Solubility at 50° C.
  solubility at 24 h: > 50000 µg/mL
[1]; 50 °C, solvent EtOAc, stirred 24 h, HPLC, read-out: Solubility at 50° C.
  solubility at 24 h: 2260 µg/mL (≈ 4.64 mM)
[1]; 50 °C, solvent MeCN, stirred 24 h, HPLC, read-out: Solubility at 50° C.
  solubility at 24 h: 8390 µg/mL (≈ 17.2 mM)
[1]; 50 °C, solvent Methanol, stirred 24 h, HPLC, read-out: Solubility at 50° C.
  solubility at 24 h: 2050 µg/mL (≈ 4.21 mM)
[1]; DMF (50° C.), DCM, chloroform, DMSO, DCM/MeOH (9/1) at 25° C. and 50° C., read-out: completely soluble
  solubility at 24 h: > 50000 µg/mL
[1]; DMSO, 25° C., slurry obtained after stirring the clear solution of 60 mg Form I in 1 mL DMSO, read-out: solubility of the saturated solution
  solubility: 6130 µg/mL (≈ 12.6 mM)

## CCN1C(=O)N(c2c(F)c(OC)cc(OC)c2F)Cc2cnc3[nH]c(CN4CCOCC4)cc3c21 [Form IX]
[1]; 25 °C, solvent MTBE, stirred 24 h, HPLC, read-out: Solubility at 25° C.
  solubility at 24 h: 50 µg/mL (≈ 0.103 mM)

## CCN1C(=O)N(c2c(F)c(OC)cc(OC)c2F)Cc2cnc3[nH]c(CN4CCOCC4)cc3c21 [Form XIII]
[2]; 50 °C, solvent THF, read-out: Solubility at 50° C.
  solubility at 24 h: 10000 µg/mL (≈ 20.6 mM)

## CCN1C(=O)N(c2c(F)c(OC)cc(OC)c2F)Cc2cnc3[nH]c(CN4CCOCC4)cc3c21 [Form VIII]
[1]; 25 °C, solvent Acetone, stirred 24 h, HPLC, read-out: Solubility at 25° C.
  solubility at 24 h: 2680 µg/mL (≈ 5.5 mM)

## CCN1C(=O)N(c2c(F)c(OC)cc(OC)c2F)Cc2cnc3[nH]c(CN4CCOCC4)cc3c21 [Form II]
[2]; 25 °C, solvent Dichloromethane, read-out: Solubility at 25° C.
  solubility at 24 h: > 50000 µg/mL
[3]; 18 mg Form II in EtOH (0.7 mL)
  Conversion result (solid form): Form I
[3]; 18 mg Form II in IPA (0.7 mL)
  Conversion result (solid form): Form I
[3]; 18 mg Form II in MeCN (0.7 mL)
  Conversion result (solid form): Form I
